Data as given in BindingDB's records for doi:10.1007/s00044-004-0120-9 (n/a, 2004).
pKi: −log10 of the molar value.

Target: T1, Alpha-1A adrenergic receptor (Homo sapiens, UniProt P35348)
T1 sequence (P35348 whole entry): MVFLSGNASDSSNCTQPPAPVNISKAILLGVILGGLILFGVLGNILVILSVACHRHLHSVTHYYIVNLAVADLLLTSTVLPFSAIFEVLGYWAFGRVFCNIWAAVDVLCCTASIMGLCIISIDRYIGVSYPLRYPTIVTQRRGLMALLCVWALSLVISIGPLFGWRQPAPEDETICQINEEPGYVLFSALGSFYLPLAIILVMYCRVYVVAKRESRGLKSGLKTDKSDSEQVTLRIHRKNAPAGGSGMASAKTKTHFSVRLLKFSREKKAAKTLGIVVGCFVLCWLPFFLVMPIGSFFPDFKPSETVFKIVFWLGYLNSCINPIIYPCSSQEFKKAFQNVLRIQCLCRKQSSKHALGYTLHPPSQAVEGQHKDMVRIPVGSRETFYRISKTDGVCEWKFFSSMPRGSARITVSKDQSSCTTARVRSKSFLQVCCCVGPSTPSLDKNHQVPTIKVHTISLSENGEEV
Test: Binding affinity to Homo sapiens (human) alpha1A adrenergic receptor

## CCC1=C(C(N)=O)C(c2ccc([N+](=O)[O-])cc2)C(C(=O)NCCCN2CCC(c3ccccc3)(c3ccccc3)CC2)=C(CC)N1 (stereo unspecified)
  pKi: 8.96
